Patent US20070128217A1 (priority 2003, published 2007)

Key:
[1] = test system: rabbit serum obtained by immunizing a rabbit with the SARS-CoV strain Frankfurt 1; format: binding; set-up: Binding of a rabbit serum to linear peptides / Binding of a rabbit serum to looped peptides / Rabbit serum linear peptides / Rabbit serum looped peptides / Binding of a rabbit serum to linear peptides of protein N of SARS-CoV Urbani (Rabbit serum linear peptides) / Binding of a rabbit serum to looped/cyclic peptides of protein N of SARS-CoV Urbani (Rabbit serum looped peptides): unit not given here
[2] = test system: control sera (pooled serum of ten healthy LUMC hospital workers; commercial negative donor pooled serum from the Dutch bloodbank); format: binding, human; set-up: Binding of Control serum LUMC to linear peptides / Binding of Control serum Blood-bank to linear peptides / Binding of Control serum LUMC to looped peptides / Binding of Control Serum Blood-Bank to Looped peptides / Binding of Control serum LUMC to linear peptides of the protein M of SARS-CoV Urbani / Binding of Control serum Blood-bank to linear peptides of the protein M of SARS-CoV Urbani / Binding of Control serum LUMC to looped peptides of the protein M of SARS-CoV Urbani / Binding of Control Serum Blood-Bank to Looped peptides of the protein M of SARS-CoV Urbani: unit not given here
[3] = test system: antibodies in sera from SARS patients (sera 1a, 1b, 2, 6, 37, 62, London, SARS-yellow, SARS-green); format: binding, human; set-up: Binding of serum 6 to linear peptides of protein X1 of SARS-CoV Urbani / Binding of serum 37 to linear peptides of protein X1 of SARS-CoV Urbani / Binding of serum 6 to looped/cyclic peptide (PEPSCAN-ELISA) / Binding of serum 37 to looped/cyclic peptide (PEPSCAN-ELISA) / Binding of serum 37 to looped/cyclic peptides of protein X1 of SARS-CoV Urbani / Binding of serum 6 to linear peptides of protein X2 / Binding of serum 37 to linear peptides of protein X2 / Binding of serum 37 to looped/cyclic peptides of protein X2 of SARS-CoV Urbani / Binding of serum 6 to linear peptides of protein M of SARS-CoV Urbani / Binding of serum 37 to linear peptides of protein M of SARS-CoV Urbani / Binding of serum 6 to looped/cyclic peptides of protein M of SARS-CoV Urbani / Binding of serum 37 to looped/cyclic peptides of protein M of SARS-CoV Urbani / Binding of serum 6 to linear peptides of protein X3 of SARS-CoV Urbani / Binding of serum 37 to linear peptides of protein X3 of SARS-CoV Urbani / Binding of serum 37 to looped/cyclic peptides of protein X3 of SARS-CoV Urbani / Binding of serum 6 to linear peptides of protein X4 of SARS-CoV Urbani / Binding of serum 37 to linear peptides of protein X4 of SARS-CoV Urbani / Binding of serum 37 to looped/cyclic peptides of protein X4 of SARS-CoV Urbani / Binding of serum 6 to linear peptides of protein X5 of SARS-CoV Urbani / Binding of serum 37 to linear peptides of protein X5 of SARS-CoV Urbani / Binding of serum 37 to looped/cyclic peptides of protein X5 of SARS-CoV Urbani / Binding of serum 6 to linear peptides of protein N of SARS-CoV Urbani / Binding of serum 37 to linear peptides of protein N of SARS-CoV Urbani / Binding of serum 6 to linear peptide (PEPSCAN-ELISA) / Binding of serum 1a to looped/cyclic peptides of protein N of SARS-CoV Urbani / Binding of serum 1b to looped/cyclic peptides of protein N of SARS-CoV Urbani / Binding of serum 2 to looped/cyclic peptides of protein N of SARS-CoV Urbani / Binding of serum 6 to looped/cyclic peptides of protein N of SARS-CoV Urbani / Binding of serum 37 to looped/cyclic peptides of protein N of SARS-CoV Urbani / Binding of serum 62 to looped/cyclic peptides of protein N of SARS-CoV Urbani / Binding of serum London to looped/cyclic peptides of protein N of SARS-CoV Urbani / Binding of serum SARS-green to looped/cyclic peptides of protein N of SARS-CoV Urbani: unit not given here

RHTYQLRARSVSPKL was tested, and the “Recognition of the peptide by the rabbit serum” value [1] was “recognized”, the “Binding of Control Serum Blood-Bank to Looped peptides” value [2] was 0.6 and the “Binding of Control serum Blood-bank to linear peptides” value [2] was 0.8. The “Binding of Control serum LUMC to linear peptides” value [2] was 0.7, the “Binding of Control serum LUMC to looped peptides” value [2] was 0.7 and the “Binding of serum 1a to linear peptides of protein X4 of SARS-CoV Urbani” value [3] was 0.8. For the same sequence, the “Binding of serum 1a to looped/cyclic peptides of protein X4 of SARS-CoV Urbani” value [3] was 0.8, the “Binding of serum 1b to linear peptides of protein X4 of SARS-CoV Urbani” value [3] was 0.6 and the “Binding of serum 1b to looped/cyclic peptides of protein X4 of SARS-CoV Urbani” value [3] was 0.5. The “Binding of serum 2 to linear peptides of protein X4 of SARS-CoV Urbani” value [3] was 0.6, the “Binding of serum 2 to looped/cyclic peptides of protein X4 of SARS-CoV Urbani” value [3] was 0.7 and the “Binding of serum 6 to linear peptides of protein X4 of SARS-CoV Urbani” value [3] was 1.1. The “Binding of serum 6 to looped/cyclic peptides of protein X4 of SARS-CoV Urbani” value [3] was 0.8, the “Binding of serum 37 to linear peptides of protein X4 of SARS-CoV Urbani” value [3] was 0.9 and the “Binding of serum 37 to looped/cyclic peptides of protein X4 of SARS-CoV Urbani” value [3] was 0.7. The “Binding of serum 62 to linear peptides of protein X4 of SARS-CoV Urbani” value [3] was 0.8, the “Binding of serum 62 to looped/cyclic peptides of protein X4 of SARS-CoV Urbani” value [3] was 0.6 and the “Binding of serum London to linear peptides of protein X4 of SARS-CoV Urbani” value [3] was 0.8. For the same sequence, the “Binding of serum London to looped/cyclic peptides of protein X4 of SARS-CoV Urbani” value [3] was 0.3, the “Binding of serum SARS-green to linear peptides of protein X4 of SARS-CoV Urbani” value [3] was 0.7 and the “Binding of serum SARS-green to looped/cyclic peptides of protein X4 of SARS-CoV Urbani” value [3] was 0.4. The “Binding of serum SARS-yellow to linear peptides of protein X4 of SARS-CoV Urbani” value [3] was 0.6 and the “Binding of serum SARS-yellow to looped/cyclic peptides of protein X4 of SARS-CoV Urbani” value [3] was 0.7.
In the case of RIIMRCWLCWKCKSK, the “Binding of a rabbit serum to linear peptides” value [1] is reported as 0.1, the “Binding of a rabbit serum to looped peptides” value [1] is reported as 0.3 and the “Binding of Control Serum Blood-Bank to Looped peptides” value [2] is reported as 0.3. The “Binding of Control serum Blood-bank to linear peptides” value [2] was 0.3, the “Binding of Control serum LUMC to linear peptides” value [2] was 0.2 and the “Binding of Control serum LUMC to looped peptides” value [2] was 0.3. For the same sequence, the “Binding of serum 1a to looped/cyclic peptide (PEPSCAN-ELISA)” value [3] was 0.2, the “Binding of serum 1b to looped/cyclic peptide (PEPSCAN-ELISA)” value [3] was 0.2 and the “Binding of serum 2 to looped/cyclic peptide (PEPSCAN-ELISA)” value [3] was 0.1. The “Binding of serum 6 to looped/cyclic peptide (PEPSCAN-ELISA)” value [3] was 0.1, the “Binding of serum 37 to looped/cyclic peptide (PEPSCAN-ELISA)” value [3] was 0.2 and the “Binding of serum 62 to looped/cyclic peptide (PEPSCAN-ELISA)” value [3] was 0.3. The “Binding of serum London to looped/cyclic peptide (PEPSCAN-ELISA)” value [3] was 0.1, the “Binding of serum SARS-green to looped/cyclic peptide (PEPSCAN-ELISA)” value [3] was 0.1 and the “Binding of serum SARS-yellow to looped/cyclic peptide (PEPSCAN-ELISA)” value [3] was 0.1. For the same sequence, the “Recognition of the peptide by sera of SARS-CoV infected individuals, and form (linear, looped/cyclic) in which it is recognized” value [3] was “recognized in linear form”.
RINWVTGGIAIAMAC was tested, and the “Rabbit serum linear peptides” value [1] was 0.2, the “Rabbit serum looped peptides” value [1] was 0.4 and the “Binding of Control Serum Blood-Bank to Looped peptides of the protein M of SARS-CoV Urbani” value [2] was 0.5. For the same sequence, the “Binding of Control serum Blood-bank to linear peptides of the protein M of SARS-CoV Urbani” value [2] was 0.8, the “Binding of Control serum LUMC to linear peptides of the protein M of SARS-CoV Urbani” value [2] was 0.8 and the “Binding of Control serum LUMC to looped peptides of the protein M of SARS-CoV Urbani” value [2] was 0.8. The “Binding of serum 1a to linear peptides of protein M of SARS-CoV Urbani” value [3] was 0.7, the “Binding of serum 1a to looped/cyclic peptides of protein M of SARS-CoV Urbani” value [3] was 0.7 and the “Binding of serum 1b to linear peptides of protein M of SARS-CoV Urbani” value [3] was 0.7. For the same sequence, the “Binding of serum 1b to looped/cyclic peptides of protein M of SARS-CoV Urbani” value [3] was 0.2, the “Binding of serum 2 to linear peptides of protein M of SARS-CoV Urbani” value [3] was 0.6 and the “Binding of serum 2 to looped/cyclic peptides of protein M of SARS-CoV Urbani” value [3] was 0.6. For the same sequence, the “Binding of serum 6 to linear peptides of protein M of SARS-CoV Urbani” value [3] was 0.8, the “Binding of serum 6 to looped/cyclic peptides of protein M of SARS-CoV Urbani” value [3] was 0.4 and the “Binding of serum 37 to linear peptides of protein M of SARS-CoV Urbani” value [3] was 0.5. For the same sequence, the “Binding of serum 37 to looped/cyclic peptides of protein M of SARS-CoV Urbani” value [3] was 0.7, the “Binding of serum 62 to linear peptides of protein M of SARS-CoV Urbani” value [3] was 0.5 and the “Binding of serum 62 to looped/cyclic peptides of protein M of SARS-CoV Urbani” value [3] was 0.7. The “Binding of serum London to linear peptides of protein M of SARS-CoV Urbani” value [3] was 0.5, the “Binding of serum London to looped/cyclic peptides of protein M of SARS-CoV Urbani” value [3] was 0.2 and the “Binding of serum SARS-green to linear peptides of protein M of SARS-CoV Urbani” value [3] was 0.6. The “Binding of serum SARS-green to looped/cyclic peptides of protein M of SARS-CoV Urbani” value [3] was 0.3, the “Binding of serum SARS-yellow to linear peptides of protein M of SARS-CoV Urbani” value [3] was 0.3 and the “Binding of serum SARS-yellow to looped/cyclic peptides of protein M of SARS-CoV Urbani” value [3] was 0.7.
